According to patent US20040224898A1, “Compositions and methods for promoting lipid mobilization in humans” (priority 2002, published 2004):

Columns and labels:
Assay type in all cases: cell-based
human adipocytes [1] = experiment: Effect of propanolol on agent-induced glycerol release; details: agent 10 micromolar
Procedure: (§1) Human pre-adipocytes were isolated by liposuction and maintained in AGM for three weeks in order to permit the pre-adipocytes to differentiate to become mature adipocytes. AGM was removed, and adipocytes were incubated in Krebs-Ringers buffer comprising 0.1% fatty acid-free BSA at 37° C. for five hours in the presence of selected concentrations (10^−9 to 10^−5 molar) of one of Schistocera gregaria AKH II, cockroach hypertrehalosemic factor (obtained from Sigma Chemical Co, St. Louis, Mo., catalog number P0175), and Locusta migratoria AKH I (obtained from American Peptide Co., Sunnyvale, Calif., catalog number 60-9-18). Glycerol released from the adipocytes was assayed using a commercially available kit (GPO-trinder assay kit available form Sigma Chemical Company, St. Louis, Mo.).
Glycerol release assays were performed as described in Example 2, except that the assays were performed using single selected concentrations of one of cockroach hypertrehalosemic factor, Locusta migratoria AKH I, and isoproterenol and multiple selected concentrations of propanolol.

human adipocytes [2] = experiment: Glycerol release assay
Procedure: as §1
A similar experiment was performed, in which glycerol release from adipocytes was assessed in the presence of the Locusta migratoria AKH I or the cockroach hypertrehalosemic factor or in the presence of isoproterenol.

human adipocytes [3] = experiment: Release of tritium label from radiolabeled palmitate (lipid mobilizing activity); details: for % Tritium Label Release with Agent: 4 hours, 37° C., Table 6 experiment
Procedure: Lipid mobilizing activity was assessed by assaying release of tritium label from radiolabeled palmitate. This assay was performed by maintaining human pre-adipocytes in Adipocyte Growth Medium (AGM), which is Dulbecco's Modified Eagle's Medium (DMEM) mixed 1:1 by volume with Ham's F-10 medium. Ham's F-10 medium comprises 15 millimolar HEPES buffer adjusted to pH 7.4 and supplemented with biotin, pantothenate, human recombinant insulin, dexamethasone, fungicide, bactericide, and 3% (v/v) fetal bovine serum). Pre-adipocytes differentiated to become mature adipocytes by three weeks of maintenance in AGM. On the day prior to assay, the adipocytes were washed and incubated overnight in Krebs-Ringers buffer comprising 0.1% fatty acid-free bovine serum albumin (BSA) and comprising 1 microCurie per milliliter of tritiated (9,10-^3H) palmitate. The following day, the medium was removed, and the cells were washed three times […]. Isoproterenol (0 to 5×10^−8 molar), Schistocera gregaria AKH II (0 to 5×10^−5 molar), or Krebs-Ringer buffer (with 0.1% fatty acid-free BSA) containing neither of these was added to the cell suspension in a volume of 150 microliters. The suspensions were incubated for 4 hours at 37° C., and then 100 microliters of each sample was subjected to scintillation counting to detect released label in the supernatant. The total amount of label incorporated was determined for each well by solubilizing the cells using 1% sodium dodecyl sulfate and subjecting the entire contents of the well to scintillation counting. Fractional release of label was calculated by dividing the amount of label detected in cell supernatant by the total amount of label detected in the supernatant and in the cells remaining in the well, and percentage release was calculated by multiplying fractional release by 100.
A similar study was done using the same methods, except that cockroach hypertrehalosemic factor (0 to 5×10^−5 molar) was used in place of S. gregaria AKH II.
A similar tritium label release experiment performed using Heliothis zea AKH II and Locusta migratoria, except that a two-hour incubation period was used in place of a 4 hour incubation period.

## EVNFSPGWGT (listed as Gromphadorhina portentosa) [cockroach hypertrehalosemic factor, insect AKH family peptide, Sigma Chemical Co. catalog number P0175]
Human adipocytes [1]; propanolol 0 molar
  Glycerol Release with Agent (medium concentration in millimolar): 0.1515 ± 0.0155 millimolar
Human adipocytes [1]; propanolol 1 × 10^−5 molar
  Glycerol Release with Agent (medium concentration in millimolar): 0.2033 ± 0.0134 millimolar
Human adipocytes [1]; propanolol 1 × 10^−6 molar
  Glycerol Release with Agent (medium concentration in millimolar): 0.1370 ± 0.0170 millimolar
Human adipocytes [1]; propanolol 1 × 10^−7 molar
  Glycerol Release with Agent (medium concentration in millimolar): 0.1161 ± 0.0232 millimolar
Human adipocytes [2]; agent 1 × 10^−5, Table 9 experiment
  Glycerol Release with Agent (medium concentration in millimolar): 0.1515 ± 0.0155 millimolar
Human adipocytes [2]; agent 1 × 10^−5 molar, five hours, 37° C., Table 8 experiment
  Glycerol Release with Agent (medium concentration in millimolar): 1.124 millimolar
Human adipocytes [2]; agent 1 × 10^−6, Table 9 experiment
  Glycerol Release with Agent (medium concentration in millimolar): 0.1216 ± 0.0103 millimolar
Human adipocytes [2]; agent 1 × 10^−6 molar, five hours, 37° C., Table 8 experiment
  Glycerol Release with Agent (medium concentration in millimolar): 0.555 millimolar
Human adipocytes [2]; agent 1 × 10^−7, Table 9 experiment
  Glycerol Release with Agent (medium concentration in millimolar): 0.0944 ± 0.00166 millimolar
Human adipocytes [2]; agent 1 × 10^−7 molar, five hours, 37° C., Table 8 experiment
  Glycerol Release with Agent (medium concentration in millimolar): 0.527 millimolar
Human adipocytes [2]; agent 1 × 10^−8, Table 9 experiment
  Glycerol Release with Agent (medium concentration in millimolar): 0.0817 ± 0.0113 millimolar
Human adipocytes [2]; agent 1 × 10^−8 molar, five hours, 37° C., Table 8 experiment
  Glycerol Release with Agent (medium concentration in millimolar): 0.451 millimolar
Human adipocytes [2]; agent 1 × 10^−9 molar, five hours, 37° C., Table 8 experiment
  Glycerol Release with Agent (medium concentration in millimolar): 0.603 millimolar
Human adipocytes [2]; conclusion of Example 2
  Ability to promote lipid mobilization in human adipocytes: able to promote lipid mobilization
Human adipocytes [3]; agent 1 × 10^−5 molar
  % Tritium Label Release with Agent: 9.08%
Human adipocytes [3]; agent 1 × 10^−6 molar
  % Tritium Label Release with Agent: 8.77%
Human adipocytes [3]; agent 1 × 10^−7 molar
  % Tritium Label Release with Agent: 7.17%
Human adipocytes [3]; agent 1 × 10^−8 molar
  % Tritium Label Release with Agent: 7.24%
Human adipocytes [3]; agent 1 × 10^−9 molar
  % Tritium Label Release with Agent: 6.88%
Human adipocytes [3]; agent 1 × 10^−10 molar
  % Tritium Label Release with Agent: 7.21%
Human adipocytes [3]; agent 5 × 10^−5 molar
  % Tritium Label Release with Agent: 9.7%
Human adipocytes [3]; agent 5 × 10^−6 molar
  % Tritium Label Release with Agent: 9.36%
Human adipocytes [3]; agent 5 × 10^−7 molar
  % Tritium Label Release with Agent: 8.08%
Human adipocytes [3]; conclusion of Example 1, murine adipocytes
  Ability to mobilize lipids in adipocytes: able to mobilize lipids
